In the NIST ThermoML archive (doi:10.1016/j.fluid.2006.10.016) one finds activity coefficient data, which are given here for 3 molecules.

This data set is described as follows: activity coefficient (dimensionless); of the first substance listed, at infinite dilution; xn = mol fraction of the nth substance listed. To be noted: Liquid, x1 = 0.

± gives the expanded uncertainty stated by the source.

For the molecule `CCCCCCCCCC` [decane] + CCCC[n+]1ccc(C)cc1.F[B-](F)(F)F, the activity coefficient runs as follows: (297 K) 491 ± 94; (307 K) 430 ± 82; (316 K) 389 ± 74; (325 K) 359 ± 68; (335 K) 320 ± 61; (344 K) 283 ± 54.
For the molecule `CCCCCCCCC` [nonane] + CCCC[n+]1ccc(C)cc1.F[B-](F)(F)F, the activity coefficient by setting is: (297 K) 309 ± 59; (307 K) 275 ± 52; (316 K) 241 ± 46; (325 K) 229 ± 43; (335 K) 201 ± 38; (344 K) 201 ± 38.
As to `CCCCCCCC` [octane] + CCCC[n+]1ccc(C)cc1.F[B-](F)(F)F, the activity coefficient by setting is: (297 K) 182 ± 34; (307 K) 170 ± 32; (316 K) 158 ± 30; (325 K) 142 ± 27; (335 K) 124 ± 23; (344 K) 119 ± 22.
